Laboratory results reported in publication PMC9114115, “Property space mapping of Pseudomonas aeruginosa permeability to small molecules” (Scientific Reports, 2022).
Several values for one entry are separate records, joined by “and”; a condition that tells them apart may be missing. Equal entries are not always repeated.

The molecules below were run on P. aeruginosa (assay: not given). Conditions: sheet "Good" permeators; all listed compounds are good permeators.
Protocol: The measured levels of compound accumulation were analyzed using machine learning to determine which features of the compounds are most important for enabling their cellular accumulation and to determine their optimal values. […] To accentuate the permeability aspect, the accumulation slopes in efflux-deficient and hyperporinated strains were normalized to those in the parental PAO1 strain.
To help visualize the data, we performed a principal component (PC) decomposition of the data.
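For Concentration slopes of accumulation, PAO1 1 min in this document: slope of accumulation versus external concentration fitted as a line through zero.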
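For Concentration slopes of accumulation, PAO1 40 min in this document: slope of accumulation versus external concentration fitted as a line through zero.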
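For Concentration slopes of accumulation, PΔ3 1 min in this document: slope of accumulation versus external concentration fitted as a line through zero.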

In the case of `C=CCN1CC(CCCC)N(C(=O)OC(C)(C)C)C(Cc2ccccc2)C1=O` (centres unmarked) [OU-0032511], the “Cluster of the identified "good" permeators” value is reported as 1.

What follows are molecules tested on P. aeruginosa PAO1-Pore (assay: MIC by two-fold dilution, hyperporinated PAO1-Pore). Conditions: PAO1-Pore, LB broth, Table S2.
Format: cell-based, Pseudomonas aeruginosa
Protocol: (§1) In all experiments, P. aeruginosa PAO1-Pore (PAO1 attTn7::PLAC-fhuA) and PΔ3-Pore (ΔmexAB ΔmexCD ΔmexXY attTn7::PLAC-fhuA) strains were used[29]. Strains were routinely grown in Luria–Bertani (LB) or MOPS-M9 medium at 37 °C with aeration. MICs shown in Tables 1 and 2 were determined by a two-fold dilution method in LB broth and MOPS-M9 medium, respectively, following the previously described protocol.

Compared with `CCN1CCN(c2cc3c(cc2F)c(=O)c(C(=O)O)cn3C2CC2)CC1` [OU-0000620, ENROFLOXACIN], `CCn1cc(C(=O)O)c(=O)c2cc3c(cc21)OCO3` [OU-0000621, OXOLINIC ACID] is higher in MICs: 0.25 for the first, 6.25 for the second.

Same assay, conditions: Pseudomonas aeruginosa, PAO1, read-out: MICs

With `CCN1CCN(c2cc3c(cc2F)c(=O)c(C(=O)O)cn3C2CC2)CC1` [OU-0000620, ENROFLOXACIN] the MIC was 0.0625 µM and 0.02 µg/mL.
For `CCn1cc(C(=O)O)c(=O)c2cc3c(cc21)OCO3` [OU-0000621, OXOLINIC ACID], the MIC was 0.625 µM and 0.16 µg/mL.

The molecules below were run on P. aeruginosa PAO1 cells (assay: LC–MS quantification of intracellular accumulation, PAO1). Conditions: 1 min incubation, 10-80 µM.
Protocol: (§2) PAO1-Pore and PΔ3-Pore were grown at 37 °C overnight with shaking at 225 rpm in 50 mM MOPS-M9 (pH 7.2) Minimal Medium supplemented with 1% glycerol[42],[43].
(§3) The next day, cells were sub-cultured (1.5:100) in fresh MOPS-M9 medium and grown for 16 h. The cultures were then split into two flasks and one of them was induced with 0.1 mM IPTG. Cells incubated for additional 4 h until OD600 reached ~ 1.0 and harvested by centrifugation at 3,275xg for 20 min in RT, washed and concentrated 10X in the spent medium. Assays were performed in 96-well plates in a final volume of […]. Cells were incubated with 10, 20, 40, 80 µM of compounds and after 1- and 40-min incubation at RT, 100 µL cell aliquots were collected by vacuum filtration onto 1.0 µm Glass Fiber Type B filters. For no-cell controls, compounds were diluted to 10, 20, 40, 80 µM final concentration in the same medium, incubated for 1 min and 40 min and filtered onto the same plates. The cell loaded and cell-free filters were dried, removed from plates and placed into 100% methanol at -80 °C for at least 10 min. Filter-bound material was extracted by water bath sonication for 1 min. Cell and filter debris were separated by ultracentrifugation at 45,000 rpm (TLA55 rotor, Beckman) for 8 min at 16 °C and the pellet re-extracted with 80% methanol in water by sonication for 15 min followed by ultracentrifugation at the same conditions. Supernatants from two extractions were combined. For the compound quantification, 5 µL of solution was analyzed in triplicate.
(§4) Calibration curves for MS analyses of compounds were generated in the same experiment by mixing compound at increasing concentrations with the sonicated PAO1 cell extracts. […] Azithromycin was used as a positive control in all experiments.
(§5) Samples were processed in positive ion mode. An Eclipse plus C18 Rapid Resolution HD column (1.8 μm, 2.1 × 50 mm, Agilent, USA) was used for separation. The flow rate was 0.6 mL/min using the following gradient: 0 to 1 min (0- 20% ACN), 1 to 4 min (20- 80% ACN), 4 to 5.1 min (80–100% ACN), 5.1 to 6.30 (100% ACN). Solvents contained 0.1% formic acid to promote positive ion formation in the electrospray. […] Data were analyzed using Agilent Masshunter workstation quantitative analysis v. B.10 software.

Going from `CCN1CCN(c2cc3c(cc2F)c(=O)c(C(=O)O)cn3C2CC2)CC1` [OU-0000620, ENROFLOXACIN] to `CCn1cc(C(=O)O)c(=O)c2cc3c(cc21)OCO3` [OU-0000621, OXOLINIC ACID], the “Concentration slopes of accumulation, PAO1_1 min” value falls from 18.49 to 5.93.

Same assay, conditions: 40 min incubation, 10-80 µM

Going from `CCN1CCN(c2cc3c(cc2F)c(=O)c(C(=O)O)cn3C2CC2)CC1` [OU-0000620, ENROFLOXACIN] to `CCn1cc(C(=O)O)c(=O)c2cc3c(cc21)OCO3` [OU-0000621, OXOLINIC ACID], the “Concentration slopes of accumulation, PAO1_40 min” value falls from 16.52 to 6.11.

These molecules were tested on P. aeruginosa PΔ3-Pore (assay: MIC by two-fold dilution, barrierless PΔ3-Pore). Conditions: Pseudomonas aeruginosa, read-out: MICs, P∆3-Pore, MOPS-M9 medium.
Format: cell-based, Pseudomonas aeruginosa
Protocol: as §1

`CCN1CCN(c2cc3c(cc2F)c(=O)c(C(=O)O)cn3C2CC2)CC1` [OU-0000620, ENROFLOXACIN] was tested, and the MIC was 0.016 µM and 0.01 µg/mL.
In the case of `CCn1cc(C(=O)O)c(=O)c2cc3c(cc21)OCO3` [OU-0000621, OXOLINIC ACID], the MIC is reported as 0.078 µM and 0.02 µg/mL.

Same assay, conditions: P∆3-Pore, LB broth, Table S2

First: CCN1CCN(c2cc3c(cc2F)c(=O)c(C(=O)O)cn3C2CC2)CC1 [OU-0000620, ENROFLOXACIN]
Second: CCn1cc(C(=O)O)c(=O)c2cc3c(cc21)OCO3 [OU-0000621, OXOLINIC ACID]
The MICs of the first is lower: 0.0039 for the first, 0.097 for the second.

The molecules below were run on P. aeruginosa PΔ3 (assay: microbe, parasite or virus in culture). Conditions: Pseudomonas aeruginosa, read-out: MICs.
Format: cell-based, Pseudomonas aeruginosa
Protocol: as §1

With `CCN1CCN(c2cc3c(cc2F)c(=O)c(C(=O)O)cn3C2CC2)CC1` [OU-0000620, ENROFLOXACIN] the MIC was 0.5 µM and 0.18 µg/mL.
For `CCn1cc(C(=O)O)c(=O)c2cc3c(cc21)OCO3` [OU-0000621, OXOLINIC ACID], the MIC was 2.5 µM and 0.65 µg/mL.

These molecules were tested on P. aeruginosa PΔ3-Pore cells (assay: LC–MS quantification of intracellular accumulation, PΔ3-Pore). Conditions: 1 min incubation, 10-80 µM.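 Also: slope of accumulation versus external concentration fitted as a line through zero.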
Protocol: as §2, §3, §4, §5

Going from `CCN1CCN(c2cc3c(cc2F)c(=O)c(C(=O)O)cn3C2CC2)CC1` [OU-0000620, ENROFLOXACIN] to `CCn1cc(C(=O)O)c(=O)c2cc3c(cc21)OCO3` [OU-0000621, OXOLINIC ACID], the “Concentration slopes of accumulation, PΔ3-Pore_1 min” value falls from 26.71 to 8.75.

With `C=CCN1CC(CCCC)N(C(=O)OC(C)(C)C)C(Cc2ccccc2)C1=O` (centres unmarked) [OU-0032511] the “Concentration slopes of accumulation, PΔ3-Pore_1 min” value was 4.38.

Same assay, conditions: 40 min incubation, 10-80 µM

Going from `CCN1CCN(c2cc3c(cc2F)c(=O)c(C(=O)O)cn3C2CC2)CC1` [OU-0000620, ENROFLOXACIN] to `CCn1cc(C(=O)O)c(=O)c2cc3c(cc21)OCO3` [OU-0000621, OXOLINIC ACID], the “Concentration slopes of accumulation, PΔ3-Pore_40min” value falls from 29.82 to 6.70.

With `C=CCN1CC(CCCC)N(C(=O)OC(C)(C)C)C(Cc2ccccc2)C1=O` (centres unmarked) [OU-0032511] the “Concentration slopes of accumulation, PΔ3-Pore_40min” value was 4.27.

Each molecule was assayed on P. aeruginosa PAO1 (assay: MIC by two-fold dilution, wild type PAO1). Conditions: Pseudomonas aeruginosa; PAO1, MOPS-M9 medium; read-out: MICs.
Format: cell-based, Pseudomonas aeruginosa
Protocol: as §1

`CCN1CCN(c2cc3c(cc2F)c(=O)c(C(=O)O)cn3C2CC2)CC1` [OU-0000620, ENROFLOXACIN] was tested, and the MIC was 2 µM and 0.7 µg/mL.
`CCn1cc(C(=O)O)c(=O)c2cc3c(cc21)OCO3` [OU-0000621, OXOLINIC ACID] was tested, and the MIC was 20 µM and 5.2 µg/mL.

The molecules below were run on P. aeruginosa PΔ3 cells (assay: not given). Conditions: 1 min incubation, 10-80 µM.
Protocol: as §2, §3, §4, §5

Going from `CCN1CCN(c2cc3c(cc2F)c(=O)c(C(=O)O)cn3C2CC2)CC1` [OU-0000620, ENROFLOXACIN] to `CCn1cc(C(=O)O)c(=O)c2cc3c(cc21)OCO3` [OU-0000621, OXOLINIC ACID], the “Concentration slopes of accumulation, PΔ3_1 min” value falls from 14.05 to 5.83.

For `C=CCN1CC(CCCC)N(C(=O)OC(C)(C)C)C(Cc2ccccc2)C1=O` (centres unmarked) [OU-0032511], the “Concentration slopes of accumulation, PΔ3_1 min” value was 4.08.

Same assay, conditions: 40 min incubation, 10-80 µM

Going from `CCN1CCN(c2cc3c(cc2F)c(=O)c(C(=O)O)cn3C2CC2)CC1` [OU-0000620, ENROFLOXACIN] to `CCn1cc(C(=O)O)c(=O)c2cc3c(cc21)OCO3` [OU-0000621, OXOLINIC ACID], the “Concentration slopes of accumulation, PΔ3_40 min” value falls from 13.99 to 6.58.

With `C=CCN1CC(CCCC)N(C(=O)OC(C)(C)C)C(Cc2ccccc2)C1=O` (centres unmarked) [OU-0032511] the “Concentration slopes of accumulation, PΔ3_40 min” value was 3.52.

These molecules were tested on P. aeruginosa PAO1-Pore cells (assay: LC–MS quantification of intracellular accumulation, PAO1-Pore). Conditions: 1 min incubation, 10-80 µM.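 Also: slope of accumulation versus external concentration fitted as a line through zero.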
Protocol: as §2, §3, §4, §5

Compared with `CCN1CCN(c2cc3c(cc2F)c(=O)c(C(=O)O)cn3C2CC2)CC1` [OU-0000620, ENROFLOXACIN], `CCn1cc(C(=O)O)c(=O)c2cc3c(cc21)OCO3` [OU-0000621, OXOLINIC ACID] is lower in “Concentration slopes of accumulation, PAO1-Pore_1 min” value: 26.71 for the first, 8.17 for the second.

`C=CCN1CC(CCCC)N(C(=O)OC(C)(C)C)C(Cc2ccccc2)C1=O` (centres unmarked) [OU-0032511] was tested, and the “Concentration slopes of accumulation, PAO1-Pore_1 min” value was 4.02.

Same assay, conditions: 40 min incubation, 10-80 µM

Compared with `CCN1CCN(c2cc3c(cc2F)c(=O)c(C(=O)O)cn3C2CC2)CC1` [OU-0000620, ENROFLOXACIN], `CCn1cc(C(=O)O)c(=O)c2cc3c(cc21)OCO3` [OU-0000621, OXOLINIC ACID] is lower in “Concentration slopes of accumulation, PAO1-Pore_40 min” value: 27.91 for the first, 6.63 for the second.

In the case of `C=CCN1CC(CCCC)N(C(=O)OC(C)(C)C)C(Cc2ccccc2)C1=O` (centres unmarked) [OU-0032511], the “Concentration slopes of accumulation, PAO1-Pore_40 min” value is reported as 4.09.
